Among the data in patent US9758492B2, “IDO inhibitors” (Bristol-Myers Squibb Company, priority 2013, dated 2017) are IC50 values, retold here.

Chain of IDO (P14902 whole entry): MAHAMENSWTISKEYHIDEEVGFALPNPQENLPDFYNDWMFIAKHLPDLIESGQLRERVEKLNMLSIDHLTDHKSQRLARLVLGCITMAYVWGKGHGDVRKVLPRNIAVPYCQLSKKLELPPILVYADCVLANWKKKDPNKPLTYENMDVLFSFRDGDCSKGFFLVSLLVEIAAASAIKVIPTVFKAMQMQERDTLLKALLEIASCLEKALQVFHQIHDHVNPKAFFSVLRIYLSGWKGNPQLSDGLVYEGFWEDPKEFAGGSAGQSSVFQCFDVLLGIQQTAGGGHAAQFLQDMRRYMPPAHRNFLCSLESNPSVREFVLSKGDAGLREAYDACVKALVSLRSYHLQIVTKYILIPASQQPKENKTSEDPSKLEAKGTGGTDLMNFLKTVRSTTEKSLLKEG

The first assay deals with T1, Human IDO1 (Homo sapiens, UniProt P14902).
T1 construct: expressed in transfected cells; host or cells: HEK293
T1 sequence (P14902 whole entry): as above
Nature of the assay: IDO Kynurenine Assay with Human IDO1/HEK293 Cells. The assay is classed as cell-based. Particulars: read-out: HEK human IDO-1 (IC50). As for the experimental part:
IDO Kynurenine Assay with Human IDO1/HEK293 Cells
Human IDO1/HEK293 cells were seeded at 10,000 cells per 50 uL per well with RPMI/phenol red free media contains 10% FBS in a 384-well black wall clear bottom tissue culture plate (Matrix Technologies LLC) 125 nL of certain concentration of compound was then added to each well using ECHO liquid handling systems. The cells were incubated for 20 hours in 37° C. incubator with 5% CO2.
The compound treatments were stopped by adding Trichloroacetic Acid (Sigma-Aldrich) to a final concentration at 0.2%. The cell plate was further incubated at 50° C. for 30 minute. The equal volume supernatant (20 uL) and 0.2% (w/v) Ehrlich reagent (4-dimethylaminobenzaldehyde, Sigma-Aldrich) in glacial acetic acid were mixed in a new clear bottom 384-well plate. This plate was then incubated at room temperature for 30 minute. The absorbance at 490 nm was measured on Envision plate reader.
Compound IC50 values were calculated using the counts of 500 nM of a reference standard treatment as one hundred percent inhibition, and counts of no compound but DMSO treatment as zero percent inhibition.
The term IC50 denotes the midpoint of a concentration-inhibition curve. As for `Cc1ccc(NC(=O)Nc2cc(-c3ccccc3-c3nnn[nH]3)ccc2N(CC(C)C)[C@H]2CC[C@@H](C(F)(F)F)CC2)cc1` [Example 305, 1-(4-(isobutyl(4-(trifluoromethyl)cyclohexyl)amino)-2′-(1H-tetrazol-5-yl)-[1,1′-biphenyl]-3-yl)-3-(p-tolyl) urea], the IC50 came out at 6 nM.
On to `Cc1ccc(NC(=O)Nc2cc(-c3cc(F)ccc3C(=O)O)ccc2N(CC(C)C)C2CCC(C(F)(F)F)CC2)cc1` (stereo not shown) [Example 306, 5-fluoro-4′-(isobutyl(4-(trifluoromethyl)cyclohexyl)amino)-3′-(3-(p-tolyl)ureido)-[1,1′-biphenyl]-2-carboxylic acid], for which the IC50 was 40 nM.
Consider `Cc1ccc(NC(=O)Nc2cc(-c3ccccc3C(=O)O)ccc2N(CC(C)C)C2CCC(C(F)(F)F)CC2)cc1` (stereo not shown) [Example 307, 4′-(isobutyl(4-(trifluoromethyl)cyclohexyl)amino)-3′-(3-(p-tolyl)ureido)-[1,1′-biphenyl]-2-carboxylic acid], for which the IC50 stood at 40 nM.
For the molecule `Cc1cnc(NC(=O)Nc2cc(-c3ccccc3-c3nnn[nH]3)ccc2N(CC(C)C)CC(C)C)cn1` [Example 308, 1-(4-(diisobutylamino)-2′-(2H-tetrazol-5-yl)-[1,1′-biphenyl]-3-yl)-3-(5-methylpyrazin-2-yl)urea], the IC50 was 270 nM.
For the molecule `Cc1cccc(-c2ccc(N(CC(C)C)CC(C)C)c(NC(=O)Nc3ccc(OC(F)(F)F)cc3)c2)c1C(=O)O` [Example 309, 4′-(Diisobutylamino)-3-methyl-3′-(3-(4-(trifluoromethoxy)phenyl)ureido)-[1,1′-biphenyl]-2-carboxylic acid], the IC50 turned out to be 4 nM.
Still for that read-out and setting: the figure for `Cc1ccc(NC(=O)Nc2cc(-c3ccccc3-c3nnn[nH]3)ccc2N(CC(C)(F)F)C2CCCCC2)cc1` [Example 356, 1-(4-(cyclohexyl(2,2-difluoropropyl)amino)-2′-(1H-tetrazol-5-yl)-[1,1′-biphenyl]-3-yl)-3-(p-tolyl)urea] is 4.06 nM; for `CC(C)CN(CC(C)C)c1ccc(-c2ccc(Cl)cc2C(=O)O)cc1NC(=O)Nc1ccc(C#N)nc1` [Example 359, 4-Chloro-3′-(3-(6-cyanopyridin-3-yl)ureido)-4′-(diisobutylamino)-[1,1′-biphenyl]-2-carboxylic acid] it is 550 nM; for `CC(C)CN(CC(C)C)c1ccc(-c2ccc(Cl)cc2C(=O)O)cc1NC(=O)Nc1ccc(Cl)cc1F` [Example 360, 4-Chloro-3′-(3-(4-chloro-2-fluorophenyl)ureido)-4′-(diisobutylamino)-[1,1′-biphenyl]-2-carboxylic acid] it is 20 nM.
On to `Cc1cc(NC(=O)Nc2cc(-c3cc(F)ccc3C(=O)O)c(F)cc2N(CC(C)C)C2CCCCC2)on1` [Example 376], for which the IC50 worked out at 2.15 nM.
As for `Cc1cc(NC(=O)Nc2cc(-c3ccccc3C(=O)O)ccc2N(CC(C)C)C2CCCCC2)on1` [Example 377], the IC50 turned out to be 1.68 nM.
With `Cc1cc(NC(=O)Nc2cc(-c3cc(F)ccc3C(=O)O)c(F)cc2N(CC(C)C)[C@@H]2C[C@H]3CC[C@@H]2C3)no1` [Example 385], the IC50 amounted to 200 nM.
As to `CC(C)CN(CC(C)C)c1ccc(-c2ccccc2-c2nnn[nH]2)cc1NC(=O)Nc1cncnc1` [Example 391], the IC50 stood at 280 nM.
Regarding `CC(C)CN(c1cc(F)c(-c2cc(F)ccc2C(=O)O)cc1NC(=O)Nc1ccc(C(F)(F)F)cc1F)C1CCCCC1` [Example 392], the IC50 is 10 nM.
For the molecule `CC(C)CN(c1cc(F)c(-c2cc(F)ccc2C(=O)O)cc1NC(=O)Nc1cc(C(F)(F)F)no1)C1CCCCC1` [Example 393], the IC50 amounted to 2.07 nM.
Turning to `Cc1ccc(NC(=O)Nc2cc(-c3cc(F)ccc3C(=O)O)c(F)cc2N(CC(C)C)C2CCCCC2)cn1` [Example 394], the half-maximal inhibitory concentration (IC50) is 7.9 nM.
Consider `Cc1ccc(NC(=O)Nc2cc(-c3ccccc3-c3nnn[nH]3)ccc2N(CC(C)C)CC(C)C)cn1` [Example 395], for which the IC50 worked out at 70 nM.
Turning to `Cc1cc(NC(=O)Nc2cc(-c3ccccc3-c3nnn[nH]3)ccc2N(CC(C)C)CC(C)C)on1` [Example 396], the IC50 came to 6.07 nM.
Regarding `CC(C)CN(c1ccc(-c2cc(F)ccc2C(=O)O)cc1NC(=O)Nc1cncnc1)C1CCCCC1` [Example 397], the IC50 came to 10 nM.
The same measure, in the same setting: under `CC(C)CN(CC(C)C)c1ccc(-c2ccccc2-c2nnn[nH]2)cc1NC(=O)Nc1cc(C(F)(F)F)no1` [Example 398] stands 9.69 nM.
Consider `Cc1ccc(NC(=O)Nc2cc(-c3cc(F)ccc3C(=O)O)ccc2N(CC(C)C)C2CCCCC2)cn1` [Example 399], for which the IC50 amounted to 20 nM.
`CC(C)CN(c1ccc(-c2cc(F)ccc2C(=O)O)cc1NC(=O)Nc1cc(C(F)(F)F)no1)C1CCCCC1` [Example 400]: the IC50 was 5.35 nM.
`CC(C)CN(c1ccc(-c2cc(F)ccc2C(=O)O)cc1NC(=O)Nc1ccnnc1)C1CCCCC1` [Example 401]: the IC50 came out at 1180 nM.
For the molecule `CC(C)CN(c1cc(F)c(-c2cc(F)ccc2C(=O)O)cc1NC(=O)Nc1ccnnc1)C1CCCCC1` [Example 402], the IC50 was 4830 nM.
Same read-out and setting: under `CC(C)CN(c1cc(F)c(-c2cc(F)ccc2C(=O)O)cc1NC(=O)Nc1ccc2nccnc2c1)C1CCCCC1` [Example 403] stands 2.32 nM; under `CC(C)CN(c1cc(F)c(-c2cc(F)ccc2C(=O)O)cc1NC(=O)Nc1ccc2nccn2c1)C1CCCCC1` [Example 404], 2560 nM.
As to `CC(C)CN(c1ccc(-c2cc(F)ccc2C(=O)O)cc1NC(=O)Nc1ccc2ncncc2c1)C1CCCCC1` [Example 405], the IC50 turned out to be 1230 nM.
On the same count and under the same terms, the figure for `CC(C)CN(c1ccc(-c2cc(F)ccc2C(=O)O)cc1NC(=O)Nc1ccc2nccnc2c1)C1CCCCC1` [Example 406] is 7.59 nM.
The same measure, in the same setting: the figure for `CC(C)CN(c1ccc(-c2cc(F)ccc2C(=O)O)cc1NC(=O)Nc1ccc2nccn2c1)C1CCCCC1` [Example 407] is 3110 nM.
On to `Cc1cc(NC(=O)Nc2cc(-c3cc(F)ccc3C(=O)O)ccc2N(CC(C)C)C2CCCCC2)no1` [Example 408], for which the IC50 is 10 nM.
`CC(C)CN(c1ccc(-c2cc(F)ccc2C(=O)O)cc1NC(=O)Nc1ccc2nn(C)cc2c1)C1CCCCC1` [Example 409]: the IC50 stood at 110 nM.

The next assay addresses IDO (Homo sapiens, UniProt P14902). As to the kind of experiment: LLE_IDO_ABS_DR (IDO assay).
Conditions: not given
With `Cc1ccc(NC(=O)Nc2cc(-c3ccccc3-c3nnn[nH]3)ccc2N(CCC(F)(F)F)Cc2ccccn2)cc1` [Example 506, 1-(4-((pyridin-2-ylmethyl)(3,3,3-trifluoropropyl)amino)-2′-(1H-tetrazol-5-yl)-[1,1′-biphenyl]-3-yl)-3-(p-tolyl)urea], the IC50 worked out at 40 nM.
Molecule `CC(C)CN(c1ccc(-c2ccccc2C(=O)O)cc1NC(=O)Nc1ccccc1F)C1CCC(F)(F)CC1` [Example 510, 4′-((4,4-Difluorocyclohexyl)(isobutyl)amino)-3′-(3-(2-fluorophenyl)ureido)-[1,1′-biphenyl]-2-carboxylic acid] had an IC50 of 1.38 nM.
As for `CC(C)CN(c1ccc(-c2ccccc2C(=O)O)cc1NC(=O)Nc1ccc(OC(F)(F)F)cc1)C1CCC(F)(F)CC1` [Example 511, 4′-((4,4-Difluorocyclohexyl)(isobutyl)amino)-3′-(3-(4-(trifluoromethoxy)phenyl)ureido)-[1,1′-biphenyl]-2-carboxylic acid], the IC50 was 8.1 nM.
As for `CC(C)CN(c1ccc(-c2ccccc2C(=O)O)cc1NC(=O)Nc1ccc(C(F)(F)F)cc1)C1CCC(F)(F)CC1` [Example 513], the IC50 is 10 nM.
